In US12140559B2, “Cell analysis using ChemFET sensor array-based systems” (LIFE TECHNOLOGIES CORPORATION, priority 2018, dated 2024):
Read-outs that look alike come from different tables or passages of the source.

How the values were obtained:
HEPG2 cells = conditions: 100 μM; seen for some cells (CHEPG1, CHEPG2), not all (CHEPG3)
Protocol: The HEPG2 cells were resuspended at 1×10^6 cells per mL and plated onto chips for overnight incubation in a cell culture incubator to allow the cells to adhere to the prepared surface of the chip.

U-2OS cells = conditions: series of concentration jumps
From the text: FIG. 12A illustrates averaged background-subtracted temporal dose-response curves for U-2OS cells treated with FCCP. FIG. 12B illustrates averaged background-subtracted temporal dose-response curves for U-2OS cells pretreated with a nutrient solution containing oligomycin before being treated with FCCP.
Both Chip 1 and Chip 2 devices were ISFET devices selective for sensing hydrogen ion, and included a microwell array. […] The U-2OS cells were resuspended at 1×10^6 cells per mL and plated onto chips for overnight incubation in a cell culture incubator to allow the cells to adhere to the prepared surface of the chip. To test for dose-dependence of the FCCP treatment, cells were exposed to a series of concentration jumps during the experiment as indicated in FIGS. 12A and FIG. 12B. In FIG. 12A, experiments were carried out in the absence of oligomycin, and in 12B, the FCCP dose-response curve was generated in the presence of oligomycin.
The data in FIG. 12A and FIG. 12B are composed of averaged cellular responses from samples tested with FCCP.

HeLa cells = HeLa cells tested individually on separate device
From the text: (§1) For the experiments for which data is presented in FIG. 13A through FIG. 13C, three distinct cell types were chosen to test for the ability of the instrument to discriminate cell type based on response to FCCP. To generate the data set comparing widely varying cell types, donor-derived primary human aortic smooth muscle (HASM) cells (HASMC; Gibco cat# C0075C), human cervical cancer cells (HeLa cells; ATCC catalogue number CRM CCL 2) and a mouse-derived […] cell line (MMM cells; ATCC catalogue number J774A.1) were selected for the study.
(§2) FIG. 13A through FIG. 13C are average background-subtracted temporal dose-responses curves for each type of cell line tested individually on separate devices. FIG. 13A is set of dose-response curves for HASM cells, FIG. 13B is a set of dose-response curves for HeLa cells, and FIG. 13C is a set of dose-response curves for MMM cells. For the data shown in FIG. 14A through FIG. 14C, a mixture of the cells were exposed to 100 μM FCCP and their responses recorded in order to understand whether or not the different cell types could be identified by their response to FCCP. FIG. 14A illustrates composite temporal dose-response curves for selected cells in a mixture of different cell types in which the cells were subjected to FCCP. FIG. 14B is an electroscopic image of the experiment of FIG. 14A taken at a time corresponding to frame 40 (2.7 seconds), in which squares within the cells indicate the pixels that were sampled for the data of FIG. 14A. FIG. 14C is the electroscopic image of FIG. 14B for which the squares within the cells in […] have removed to provide a clear image of the cells.
(§3) The sensor array devices used in experiments from which data for FIG. 13A though FIG. 14C was generated was a Chip 2 device of FIG. 3, selective for sensing hydrogen ion, and included a microwell array.

MMM cells = MMM cells tested individually on separate device
From the text: as §1, §2, §3

HASM cells = HASM cells tested individually on separate device
From the text: as §1, §2, §3

[1] = test system: voltage-gated calcium ion channels; assay: ChemFET sensor array: 30 mM KCl depolarizing stimulus in presence of calcium channel blocker, control vs transfected U-2OS cells; assay type: cell-based; conditions: 10 μM, U-2OS control cells vs U-2OS transfected with voltage-gated calcium channel alpha, beta and alpha-2-delta subunits
From the text: FIG. 9A illustrates temporal response curves for U-2OS cells (C1 and C2) and U-2OS cells transfected with voltage-gated calcium channel alpha, beta and alpha-2-delta subunits (C3 and C4). The temporal response curves presented in FIG. 9A represent data collected over an area of interest for the U-2OS cells in comparison to transfected U-2OS cells, in which the impact of cell response for each type of cell treated with the calcium ion channel blocker verapamil was monitored through a cycle of an initial state of resting potential, followed by conditions for depolarization of membrane potential, and return to resting potential.
Briefly, the sensor array device surface was soaked for 30 minutes with 70% ethanol in water, then rinsed with PBS before adding a solution of 0.1% poly-D-lysine, which was allowed to sit for two hours. The device was then rinsed twice with 200 μL of a cell culture medium, for example, McCoy's 5A modified medium with 10% fetal calf serum. After rinsing with the cell culture medium, the devices were ready for plating with a cell suspension.
Preparation of transfected cells was done using a cell suspension of 1×10^6 cells per mL. Mammalianized BacMam gene delivery particles encoding a mixture of voltage-gated calcium ion channel alpha, beta and alpha-2-delta subunits was added to the cell suspension to reconstitute functional channels. […]

SMILES	cellular response observed during application (electroscopic image) (HEPG2 cells)	averaged cellular temporal response (U-2OS cells; absence of oligomycin)	averaged cellular temporal response (U-2OS cells; presence of oligomycin (pretreatment))	temporal response to FCCP (HeLa cells)	temporal response to FCCP (MMM cells)	temporal response to FCCP (HASM cells)	activity of blocker on temporal response to depolarizing stimulus [1]
N#CC(C#N)=NNc1ccc(OC(F)(F)F)cc1 [FCCP, carbonyl cyanide-4-(trifluoromethoxy)phenylhydrazone]	efflux of cellular contents	dose-dependent FCCP responses	dose-dependent FCCP responses	distinct kinetic and amplitude response	distinct kinetic and amplitude response	distinct kinetic and amplitude response	–
COc1ccc(CCN(C)CCCC(C#N)(c2ccc(OC)c(OC)c2)C(C)C)cc1OC (stereo not shown) [verapamil]	–	–	–	–	–	–	selective activity of a blocker on cultures that express the target protein
